# Source: patent publication US20050130906A1, “Amelioration of macular degeneration and other ophthalmic diseases” (priority 2003, published 2005)
# Experiments:
# [1] = system: blue light-illuminated A2E-laden RPE (ARPE-19 cells); assay: Protection against A2E-mediated blue light damage (MTT assay and two-color fluorescence cell death assay); type: cell-based
# Source text: The ability of Tempol-H to protect against A2E-mediated blue light damage was examined.
# Materials and Methods: ARPE-19 cells that have accumulated A2E in culture were exposed to 430±20 nm light delivered from a halogen source. This wavelength of light is relevant since (i) the excitation maximum of A2E is approximately 430 nm, and (ii) light of this wavelength reaches the RPE in vivo while light of wavelengths longer than 400 nm are not absorbed by the cornea and lens. Cell death in blue light-illuminated A2E-laden RPE was compared with and without pre-treatment (24 hours) with Tempol-H. The loss of cell viability was quantified by: • 1. A calorimetric microtiter assay based on ability of healthy metabolically active cells to cleave the yellow tetrazolium salt MTT to purple formazan crystals. Cell viability was assessed 24 hours after blue light illumination. Triplicate wells were assayed in each of 2 experiments.
# 2. Two-color fluorescence assay in which the nuclei of all dead cells appear red due to staining by a membrane-impermeant dye (Dead Red nuclei acid stain, Molecular Probes) with the nuclei of all cells stained blue with DAPI. Cell viability was assessed 8 hours after blue light illumination. Replicates were assayed by counting cells within 5 microscopic fields within the area of illumination in each well and 3 wells were assayed per experiment. Data are based on 3 experiments.
# [2] = system: lens epithelial cells; conditions: Mitchell et al. 1991; Krishna et al. 1991; cited from earlier work
# [3] = system: cataract; conditions: Zigler et al., U.S. Pat. No. 6,001,853; cited from earlier work
# [4] = system: retinal S-antigen-induced experimental autoimmune uveoretinitis (EAU); conditions: rat model, after systemic injection; Zamir et al. 1999; cited from earlier work
SMILES,"protection of blue light-illuminated A2E-laden RPE cells ([1]; 1 mM, FIG. 2)","protection against the death of A2E-laden RPE ([1]; blue light 430±20 nm, 24 hours pre-treatment, FIG. 1 and FIG. 2)","protection of blue light illuminated A2E-laden RPE cells ([1]; various concentrations, FIG. 1)",protection of lens epithelial cells from oxidative damage [2],anti-cataractogenic activity compared with the corresponding nitroxide [3],severity of EAU [4]
CC1(C)CC(O)CC(C)(C)N1O [Tempol-H],protection,dose-dependent protection,protect,afforded no such protection,better anti-cataractogenic composition than the corresponding nitroxide,–
"CC1(C)CC(O)CC(C)(C)N1[O] [tempol, 4-hydroxy-2,2,6,6,-tetramethylpiperidine-1-N-oxyl]",–,–,–,–,–,reduced the severity
